Data reported in ChEMBL document CHEMBL1148143, “Globulixanthones A and B, two new cytotoxic xanthones with isoprenoid groups from the root bark of Symphonia globulifera” (J Nat Prod, 2002).
Converted amounts (≈) assume the structure as drawn.

Test system: KB
Assay: Cytotoxicity against human KB cells
Assay type: functional, cell-based

C=C(C)/C=C/c1cc2c(=O)c3c(O)cccc3oc2c(OC)c1O [GLOBULIXANTHONE A] gave an IC50 of 2.15 µg/mL (≈ 6.63 µM).

Molecule CC(C)=CCCC1(C)C=Cc2c(cc(O)c3oc4cccc(O)c4c(=O)c23)O1 (configuration not stated) [GLOBULIXANTHONE B] has an IC50 of 1.78 µg/mL (≈ 4.7 µM).
